Literature values, collected in patent US6809181B2, “Human beta-defensin-3 (HBD-3), a highly cationic beta-defensin antimicrobial peptide” (University of Iowa Research Foundation, priority 2000, dated 2004).
Values after ≈ are worked out from the molar mass of the structure shown. Read-outs that look alike come from different tables or passages of the source.

Legend:
[1] = system: Neisseria gonorrhoeae (non β-lactamase producer); settings: cited from earlier work
[2] = system: Staphylococcus coagulase f; settings: unit assumed; cited from earlier work
[3] = system: Bordetella bronchiseptica; settings: n=11, r8, cited from earlier work
Neisseria gonorrhoeae = settings: n=19, r81, cited from earlier work
Haemophilus ducreyi = settings: n=122; r53; unit assumed; cited from earlier work
Campylobacter pylori = settings: n=56, r43, cited from earlier work
[4] = system: Branhamella (Moraxella) catarrhalis (β-lactamase producer); settings: cited from earlier work
[5] = system: Haemophilus influenzae (non β-lactamase producer); settings: n=137; r58; cited from earlier work
[6] = system: Staphylococcus epidermidis; settings: n=50; r120; unit assumed; cited from earlier work
[7] = system: Staphylococcus aureus (penicillin susceptible); settings: cited from earlier work; for MIC50 / MIC90: unit assumed
[8] = system: Staphylococcus haemolyticus; settings: n=20; r121; unit assumed; cited from earlier work
Bacillus spp. = settings: cited from earlier work
Staphylococcus aureus = settings: unit assumed, cited from earlier work
[9] = system: Branhamella (Moraxella) catarrhalis; settings: n=20, unit assumed, cited from earlier work
Bordetella parapertussis = settings: n=46; r9; unit assumed; cited from earlier work
Enterococcus faecium = settings: n=14, r51, cited from earlier work
[10] = system: Haemophilus influenzae (penicillin susceptible); settings: n=22, r64, cited from earlier work
Borrelia burgdorferi = settings: n=10; r12; unit assumed; cited from earlier work

## CC[C@H]1OC(=O)[C@H](C)[C@@H](O[C@H]2C[C@@](C)(OC)[C@@H](O)[C@H](C)O2)[C@H](C)[C@@H](O[C@@H]2O[C@H](C)C[C@H](N(C)C)[C@H]2O)[C@](C)(O)C[C@@H](C)C(=O)[C@H](C)[C@@H](O)[C@]1(C)O [ERYTHROMYCIN, erythromycin]
[1]; n=73, r82
  Range: 0.015-4
[1]; n=78, r84
  Range: 0.03-2
[2]
  MIC50: 0.25 µg/mL (≈ 0.341 µM)
[3]
  Range: 4-32
[3]; unit assumed
  MIC50: 8 µg/mL (≈ 10.9 µM)
  MIC90: 32 µg/mL (≈ 43.6 µM)
Neisseria gonorrhoeae
  Range: 0.0075-8
Neisseria gonorrhoeae; unit assumed
  MIC50: 0.25 µg/mL (≈ 0.341 µM)
  MIC90: 1 µg/mL (≈ 1.36 µM)
Haemophilus ducreyi
  MIC50: 0.004 µg/mL (≈ 0.00545 µM)
  MIC90: 0.06 µg/mL (≈ 0.0818 µM)
Campylobacter pylori
  Range: 0.25-16
Campylobacter pylori; unit assumed
  MIC50: 0.5 µg/mL (≈ 0.681 µM)
  MIC90: 1 µg/mL (≈ 1.36 µM)
[4]; n=47, r29
  Range: 0.06-1
[4]; n=58, r32
  Range: 0.03-0.25
[4]; n=160, r35
  Range: 0.06-8
[5]
  Range: 0.06-8
[6]
  MIC50: 64 µg/mL (≈ 87.2 µM)
[7]; n=20, r94
  MIC50: 0.5 µg/mL (≈ 0.681 µM)
  MIC90: 0.5 µg/mL (≈ 0.681 µM)
[7]; n=35, r96
  Range: 0.06-32
  MIC50: 0.25 µg/mL (≈ 0.341 µM)
  MIC90: 0.5 µg/mL (≈ 0.681 µM)
[8]
  MIC50: 64 µg/mL (≈ 87.2 µM)
Bacillus spp.; n=20, r6
  Range: 0.03-2
Bacillus spp.; n=20, r6, unit assumed
  MIC90: 2 µg/mL (≈ 2.73 µM)
Bacillus spp.; unit assumed
  MIC50: 0.25 µg/mL (≈ 0.341 µM)
Staphylococcus aureus; n=44, r92
  MIC90: 0.5 µg/mL (≈ 0.681 µM)
Staphylococcus aureus; n=100, r93
  MIC50: 0.5 µg/mL (≈ 0.681 µM)
  MIC90: 4 µg/mL (≈ 5.45 µM)
[9]; r13
  MIC50: 0.25 µg/mL (≈ 0.341 µM)
[9]; r15
  MIC50: 0.25 µg/mL (≈ 0.341 µM)
  MIC90: 1 µg/mL (≈ 1.36 µM)
Bordetella parapertussis
  MIC50: 0.25 µg/mL (≈ 0.341 µM)
Enterococcus faecium
  Range: 0.06-64
Enterococcus faecium; unit assumed
  MIC50: 1 µg/mL (≈ 1.36 µM)
[10]
  Range: 0.25-16
[10]; unit assumed
  MIC50: 8 µg/mL (≈ 10.9 µM)
  MIC90: 16 µg/mL (≈ 21.8 µM)
Borrelia burgdorferi
  MIC50: 0.03 µg/mL (≈ 0.0409 µM)
  MIC90: 0.06 µg/mL (≈ 0.0818 µM)
